Values of other authors in patent US20240274252A1, “Dosage Calculator” (Closed Loop Medicine Ltd., priority 2023, published 2024).
Values joined by “and” are separate entries in the source; they are usually repeats but may differ in a detail not shown here. Equal entries are not always repeated. Where two headings read alike, the source gives them in different places.

Experiments:
[1] = for time to peak levels: immediate release
[2] = not given; remark: listed apart in the source
[3] = patient population
[4] = model input parameter, FIG. 4A
[5] = not given; remark: listed apart in the source

In the case of [H]/N=C(/N)c1ccc(NCc2nc3cc(C(=O)N(CCC(=O)O)c4ccccn4)ccc3n2C)cc1 [dabigatran], the half-life ([1]; elimination after absorption) is listed as 12 to 17 h and 12 to 14 h, the “acyl glucuronides, mean share of parent drug in the plasma” value ([1]; equally active metabolites) is listed as roughly 10% and the “time to peak levels” value ([1]; after food) is listed as 3 to 4 h. The “time to peak levels” value ([1]; taken without food) was “approximately 1 hour”, the PK linearity ([1]; in vivo) was “linear” and the mean half-life ([1]; in vivo) was 12 h. The “share of absorbed drug eliminated into urine” value ([1]; in vivo) was 80%, the “variability in circulating plasma levels” value ([1]; inter-subject, from prodrug conversion and low GI absorption) was “up to 50%” and the “remainder of the drug going into the faeces” value ([1]; oral) was roughly 90%. The “time of peak absorption” value ([1]; oral) was roughly 1 h, the “fraction of the drug absorbed from the GI tract” value ([1]; oral, after conversion from prodrug dabigatran etexilate) was ~5% and 3-7% and the increase in availability ([1]; pellets removed from the capsule) was 75%. For the same compound, the “elimination via the kidney, share of total clearance” value ([1]; primary route of elimination) was 80%, the “total and peak systemic exposure versus dose” value ([1]; range 50-400 mg twice daily) was “dose-proportional” and the “delay of the peak by food” value ([1]; with food, total absorption not affected) was no more than 2 h. For the same compound, the “increase in maximum concentration, Cmax” value (with Quinidine) was 56%, the “increase in total absorption” value (with Quinidine) was 53% and the “increase in total exposure” value (with ketoconazole) was roughly 1.4 fold. For the same compound, the “increase in total exposure” value (with verapamil, depending on when the drug is taken) was 2.4 fold, the “Change in Drug Level Exposure (AUC)” value ([2]; Age, per year older compared to 72 yr) was 0.41% increase per year older compared to 72 yr and the “Change in Drug Level Exposure (AUC)” value ([2]; Amiodarone co-administration) was 12% increase. For the same compound, the “Change in Drug Level Exposure (AUC)” value ([2]; CrCl = 30, relative to median CrCl of 69 in RE-LY) was 1.8 fold increase, the “Change in Drug Level Exposure (AUC)” value ([2]; CrCl = 50, relative to median CrCl of 69 in RE-LY) was 1.3 fold increase and the “decrease in Vd” value ([2]; Hb above 14.3 g · dL^−1) was 4 %/1 g · dL^−1. The “Change in Drug Level Exposure (AUC)” value ([2]; PPIs co-administration) was roughly 13% decrease, the “Change in Drug Level Exposure (AUC)” value ([2]; South Asians compared to other ethnicities) was ~26% increase in South Asians compared to other and the “Change in Drug Level Exposure (AUC)” value ([2]; Verapamil co-administration) was 23% increase. The “Change in activity: chance of bleeding” value ([2]; coadministration of Asprin, clopidogrel) was “Coadministration will increase chance of bleeding”, the “Change in Drug Level Exposure (AUC)” value ([2]; covariate Haemoglobin) was “no effect on AUC” and the “Change in Drug Level Exposure (AUC)” value ([2]; covariate Weight) was “Weight had no effect on AUC but increase in distribution”. The “Change in Drug Level Exposure (AUC)” value ([2]; females compared to men) was ~9% increase in females compared to men, the “effect on Cmax” value ([2]; low weight) was “will increase Cmax” and the “Change in Drug Level Exposure (AUC)” value ([2]; patients with heart failure) was ~7% increase in patients with HF. The “range of trough plasma levels” value ([3]; 110 mg dose) was 25 to 160 ng/mL, the “range of trough plasma levels” value ([3]; 150 mg dose) was 40 to 220 ng/mL and the “Ka, first order drug absorption rate constant” value [4] was 0.754. For the same compound, the “Q, intercompartmental clearance” value [4] was 35.5, the “Vc, central compartment volume” value [4] was 673 and the “Vp, peripheral compartment volume” value [4] was 345.
In the case of CCCCCCOC(=O)NC(=N)c1ccc(NCc2nc3cc(C(=O)N(CCC(=O)OCC)c4ccccn4)ccc3n2C)cc1 [Dabigatran etexilate], the “risk of intracranial bleeds compared with warfarin” value ([5]; RELY) is listed as “small reduction” and the comparison with warfarin ([5]; phase III RELY study, patients with nonvalvular AF) is listed as “superior to warfarin”.
